Here are results for five molecules from PMC12376128, “In vitro and In Vivo Drug Metabolism Analysis of BPI-460372 - A Covalent TEAD1/3/4 Inhibitor” (Current Drug Metabolism, 2025).

In series [1] the test system is dog hepatocytes. In words: Metabolism and metabolite formation in hepatocytes. To be noted: beagle dog hepatocytes, 10 µM BPI-460372, 4 h incubation. Format: in vitro ADME, beagle dog. From the text:
(§1) All the samples were duplicates.

The test system of series [2] is cysteine S-conjugate β-lyase. Briefly: Effect of cysteine S-conjugate β-lyase inhibitor AOAA on the metabolism of BPI-460372 (rat urine). Conditions: for Area ratio in rat urine, mean (%CV): 20 mg/kg BPI-460372 + 100 mg/kg AOAA, once daily 21 days, urine 0-48 h on day 21; for Change of area ratio in rat urine on coadministration with AOAA: 20 mg/kg BPI-460372 with versus without 100 mg/kg AOAA.
Method: To investigate the effect of cysteine S-conjugate β-lyase on the metabolism of BPI-460372, SD rats were treated with 20 mg/kg BPI-460372 alone (n=3, male) or 20 mg/kg BPI-460372 coadministration with 100 mg/kg cysteine S-conjugate β-lyase inhibitor AOAA (n=3, male), once daily for 21 consecutive days. On day 21, urine samples were collected at 0-8, 8-24 and 24-48 h. The same percentage of urine samples from each rat was taken at these three time intervals and mixed. The samples were analyzed by LC-MS/MS and then semi-quantified using the peak area ratio of analyte versus IS.

Series [3] can be described thus: Metabolite identification in rat plasma, urine, feces and bile. It counts as in vivo, SD rats. To be noted: for Relative abundance of MS peak areas, Rat Bile 0-48 h / Relative abundance of MS peak areas, Rat Feces 0-48 h / Relative abundance of MS peak areas, Rat Urine 0-48 h: oral 6 mg/kg BPI-460372, average of male and female pooled samples. How it is done:
The plasma samples were acquired from SD rats (n=6, 3 female and 3 male) and beagle dogs (n=6, 3 female and 3 male) after administration of 12 mg/kg and 8 mg/kg of BPI-460372, respectively. The rat urine, feces, and bile samples were acquired in SD rats after administration of 6 mg/kg of BPI-460372.
Equal volume from each rat was pooled together to get 1 male and 1 female 0-24 h plasma samples. An equal percentage by volume of individual urine sample (0-8, 8-24, and 24-48 h) from 3 female and 3 male rats was pooled by time interval across rats, respectively, resulting in two pooled urine samples (1 male and 1 female). An equal percentage by weight of individual feces samples (0-8, 8-24, and 24-48 h) was pooled by time interval across female and male rats, resulting in two pooled fecal samples. An equal percentage by volume of individual bile samples (0-4, 4-8, 8-24, and 24-48 h) was pooled by time interval across female and male rats, resulting in two pooled bile samples. […] Equal volumes from 3 female and 3 male rats were pooled together to get two 0-48 h plasma samples. For blank samples of plasma, urine, and bile, equal volume was pooled across subjects. For a blank sample of feces, equal weight was pooled across rats.
The pooled plasma, feces, and bile samples were extracted by adding 3-fold volume of acetonitrile, and the mixture was vortexed (1 min) and sonicated (1 min) before centrifugation (7220 g, 5 min). The pooled urine samples were centrifuged (7220 g, 5 min). Then the supernatant was transferred into a clean tube and evaporated to dryness under the nitrogen stream. The residues were redissolved with an appropriate volume of acetonitrile/water (20: 80, v: v). After centrifugation, the redissolved solution was transferred into an HPLC vial for UHPLC-Orbitrap-HRMS (15000 g, 10 min, 4°C).

Series [4] relates to rat hepatocytes. Briefly: Metabolism and metabolite formation in hepatocytes. To be noted: SD rat hepatocytes, 10 µM BPI-460372, 4 h incubation. Format: in vitro ADME, SD rat.
Excerpt: as §1

Series [5] concerns mouse hepatocytes. In words: Metabolism and metabolite formation in hepatocytes. Format: in vitro ADME, ICR mouse. Conditions: ICR mouse hepatocytes, 10 µM BPI-460372, 4 h incubation.
Excerpt: as §1

Series [6] concerns human hepatocytes. In words: Metabolism and metabolite formation in hepatocytes. Conditions: human hepatocytes, 10 µM BPI-460372, 4 h incubation.
Series [7] has as its system monkey hepatocytes. Briefly: Metabolic stability in hepatocytes. Conditions: monkey hepatocytes. How it is done:
(§2) After mixing, 20 μL of cell suspension was serially transferred into 200 μL of cold acetonitrile containing IS at the time points of 0, 5, 15, 30, 60, and 120 min, respectively.
(§3) The metabolic stability was assessed by measuring the depletion of substrate. The half-life (t1/2), intrinsic clearance (CLint, in virto, µL·min^-1·million cells^-1), whole liver intrinsic clearance (CLint, in vivo, mL·min-1·kg^-1), and in vivo hepatic clearance (CLH, mL·min-1·kg^-1) were calculated following a reported method. In the calculation of CLH, the fraction drug unbound (Fub) was set as 1. The hepatic blood flow, liver weight, and hepatocellularity of five species were used for the calculation of CLint, in vivo [13, 14]. The hepatic extraction ratio (Eh) means the ratio of CLH to hepatic blood flow.

The test system of series [8] is human hepatocytes. Briefly: Metabolic stability in hepatocytes. To be noted: human hepatocytes. How it is done: as §2, §3
Series [9] has as its system mouse hepatocytes. In words: Metabolic stability in hepatocytes. To be noted: mouse hepatocytes. As to the method:
as §2, §3

Series [10] is described as follows: Metabolic stability in hepatocytes. To be noted: hepatocytes. As to the method: as §2, §3
The test system of series [11] is rat hepatocytes. Briefly: Metabolic stability in hepatocytes. Conditions: rat hepatocytes. As to the method:
as §2, §3

Series [12] relates to dog hepatocytes. In words: Metabolic stability in hepatocytes. Conditions: dog hepatocytes. As to the method: as §2, §3
Series [13] deals with monkey hepatocytes. In words: Metabolism and metabolite formation in hepatocytes. Format: in vitro ADME, cynomolgus monkey. To be noted: cynomolgus monkey hepatocytes, 10 µM BPI-460372, 4 h incubation.
Excerpt: as §1

Regarding `CC(=O)NC(CSCC(F)C(=O)N1CC(n2c(=O)n(-c3ccc(C(F)(F)F)cc3)c3nccnc32)C1)C(=O)O` (stereo not shown) [M570], the “UV (314 nm) Peak Areas Relative Abundance” value in [1] was found to be 2.44%. For the same molecule, in series [2], the “Area ratio in rat urine, mean (%CV)” value is on record as 0.08 (40) and the “Change of area ratio in rat urine on coadministration with AOAA” value is recorded as “reduced”. In series [3], the “Relative abundance of MS peak areas, Rat Bile 0-48 h” value (“Relative abundance … Rat Bile 0-48 h” for short) is 45.40%; the “Relative abundance of MS peak areas, Rat Feces 0-48 h” value stood at 3.96%; the “Relative abundance of MS peak areas, Rat Urine 0-48 h” value was 34.25%. In addition, the “Relative abundance of MS peak areas, Rat Plasma 0-24 h” value in series [3] (oral 12 mg/kg BPI-460372, average of male and female pooled samples) stood at 0.12%. For the same molecule, the “UV (314 nm) Peak Areas Relative Abundance” value in [4] amounted to 2.6%. In addition, the “UV (314 nm) Peak Areas Relative Abundance” value in [5] was 3.57%. In addition, the “UV (314 nm) Peak Areas Relative Abundance” value in series [6] was found to be 1.48%.

For the molecule `C[C@]12CC[C@H]3[C@@H](CCC4=CC(=O)CC[C@@]43C)[C@@H]1CC[C@@H]2O` [Testosterone, testosterone], the CLH in series [7] (Fub set as 1) worked out at 36.6 mL/min/kg; in [8] (Fub set as 1), 18.7 mL/min/kg; in series [9] (Fub set as 1), 77.4 mL/min/kg; in series [11] (Fub set as 1), 44.6 mL/min/kg; in series [12] (Fub set as 1) it was 28.3 mL/min/kg. Besides, the “CLint, in vivo” value in series [7] (scaled to whole liver) worked out at 217.3 mL/min/kg; in series [8] (scaled to whole liver), 188.7 mL/min/kg; in [9] (scaled to whole liver), 554.1 mL/min/kg; in series [11] (scaled to whole liver), 233.5 mL/min/kg; in series [12] (scaled to whole liver), 337.8 mL/min/kg. The “CLint, in virto” value in series [8] (1 µM) was 52.2 µL·min^-1·Million cells^-1; in [9] (1 µM) it was 46.6 µL·min^-1·Million cells^-1; in series [12] (1 µM), 49.1 µL·min^-1·Million cells^-1. For the same molecule, the half-life at 1 µM in [10] (ICR, mouse) was 14.9 min; in [10] (SD, rat), 13.9 min; in series [10] (beagle, dog) it was 14.1 min; in series [10] (human) it was 13.3 min; in [10] (monkey), 11.5 min.

With `CC(=O)NC(CSCC(O)C(=O)N1CC(n2c(=O)n(-c3ccc(C(F)(F)F)cc3)c3cncnc32)C1)C(=O)O` (stereo not shown) [M568], in series [2], the “Area ratio in rat urine, mean (%CV)” value is given as 0.06 (20) and the “Change of area ratio in rat urine on coadministration with AOAA” value is listed as “reduced”. For the same molecule, in series [3], the “Relative abundance … Rat Bile 0-48 h” value came to 3.22%; the “Relative abundance of MS peak areas, Rat Feces 0-48 h” value worked out at 0.45%; the “Relative abundance of MS peak areas, Rat Urine 0-48 h” value was 1.80%.

On to `NC(CCC(=O)NC(CSCC(F)C(=O)N1CC(n2c(=O)n(-c3ccc(C(F)(F)F)cc3)c3nccnc32)C1)C(=O)NCC(=O)O)C(=O)O` (stereo not shown) [M714], for which the “UV (314 nm) Peak Areas Relative Abundance” value in [1] stood at 22.65%; in [4] it was 18.4%; in series [13] it was 3.01%; in [5], 24.76%; in series [6], 3.01%. In addition, the “Relative abundance … Rat Bile 0-48 h” value in series [3] stood at 3.27%.

As to `NC(CSCC(O)C(=O)N1CC(n2c(=O)n(-c3ccc(C(F)(F)F)cc3)c3cncnc32)C1)C(=O)O` (stereo not shown) [M526], the “Relative abundance … Rat Bile 0-48 h” value in [3] amounted to 1.52%.
